Source: ChEMBL document CHEMBL5726856, “ULK1 inhibitors and methods using same” (2019)

target: T1, Serine/threonine-protein kinase ULK1 (Homo sapiens, UniProt O75385); test: ULK1 inhibition assay: Gamma-32P assays to measure ULK1 kinase activity were performed as previously described. Briefly, Flag ULK1 was transfected into HEK293T cells and 20 hours later treated as indicated. The immmunoprecipitate was washed in IP buffer 3 times, and washed in kinase buffer (25 mM MOPS, pH 7.5, 1 mM EGTA, 0.1 mM Na3VO4, 15 mM MgCl2,). Hot and cold ATP were added at a 100 μM final concentration. As substrates, GST or the recombinant protein GST-Atg101 purified from E. coli were used at 1 μg for each reaction. Reactions were boiled, run out on SDS page gel. The gel was dried, and imaged using PhosphoImager software. For cold assays to asses ULK1, Flag ULK1 which was transiently overexpressed and immunoprecipited from HEK293T cells. Reactions were then run out on SDS page gel, transferred to PVDF membrane and blotted for total levelsFluorescence MicroscopyVps34flox/flox MEFs were reconstituted with Flag-VPS34 and either p40FX or GFP-DFCP1. 48 hours post infection with adenovirus expressing Cre recombinase (MOI of 100), cells were plated on glass coverslips at a density of 3×10^5 cells per well in 6-well tissue culture plates. 18 h later, cells were fixed in 4% PFA in PBS for 10 minutes and permeabilized in 0.2% Triton in PBS for 10 minutes. The following primary antibodies were used: mouse anti-Myc epitope and LC3B XP antibody (2276 and 3868 respectively, Cell Signaling Technologies). Secondary antibodies were anti-rabbit Alexa488 and anti-mouse Alexa594 (Molecular Probes, 1:1000. Cells were then fixed and counter stained with DAPI. Coverslips were mounted in FluoromountG (SouthernBiothech). Images were acquired on a Zeiss Axioplan2 epifluorescence microscope coupled to the Openlab software. Confocal images of mitotracker were taken on Zeiss LSM 710 laser scanning confocal microscope. 10 random fields per condition were acquired using the 100× objective and representative images shown. Glass coverslips were mounted directly on plate with FluoromountG and images taken on Zeiss Axioplan2 epifluorescence microscope.
T1 sequence (O75385 whole entry): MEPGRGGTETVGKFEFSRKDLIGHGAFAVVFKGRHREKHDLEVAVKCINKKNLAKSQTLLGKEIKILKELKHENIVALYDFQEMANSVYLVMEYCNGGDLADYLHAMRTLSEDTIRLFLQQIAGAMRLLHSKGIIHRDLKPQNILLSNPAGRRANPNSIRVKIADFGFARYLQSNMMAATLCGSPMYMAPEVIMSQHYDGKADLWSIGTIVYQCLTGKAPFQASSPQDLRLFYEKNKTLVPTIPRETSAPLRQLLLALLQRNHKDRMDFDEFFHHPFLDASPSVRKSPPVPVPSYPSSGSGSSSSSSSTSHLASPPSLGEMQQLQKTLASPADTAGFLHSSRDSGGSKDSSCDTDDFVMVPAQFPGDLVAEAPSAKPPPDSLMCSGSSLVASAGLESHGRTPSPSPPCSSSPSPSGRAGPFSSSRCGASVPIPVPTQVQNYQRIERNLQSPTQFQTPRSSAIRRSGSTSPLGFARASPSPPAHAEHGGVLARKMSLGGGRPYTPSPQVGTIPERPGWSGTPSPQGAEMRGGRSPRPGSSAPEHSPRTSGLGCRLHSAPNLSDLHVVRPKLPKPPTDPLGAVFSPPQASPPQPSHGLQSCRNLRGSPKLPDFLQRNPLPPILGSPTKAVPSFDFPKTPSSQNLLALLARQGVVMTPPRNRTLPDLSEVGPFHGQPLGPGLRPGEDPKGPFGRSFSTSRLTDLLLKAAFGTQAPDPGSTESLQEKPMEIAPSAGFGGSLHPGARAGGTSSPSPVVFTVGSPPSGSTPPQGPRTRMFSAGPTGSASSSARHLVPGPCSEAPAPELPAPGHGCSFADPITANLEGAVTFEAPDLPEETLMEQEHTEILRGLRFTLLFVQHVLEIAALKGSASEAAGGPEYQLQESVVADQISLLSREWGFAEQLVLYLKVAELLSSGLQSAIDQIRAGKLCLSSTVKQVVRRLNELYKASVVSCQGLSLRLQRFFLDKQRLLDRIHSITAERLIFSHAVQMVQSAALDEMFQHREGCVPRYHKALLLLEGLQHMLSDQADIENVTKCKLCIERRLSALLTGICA

`O=C(C1CC1)N1CCc2cc(Nc3ncc(C(F)(F)F)c(NC4CC4)n3)ccc2C1` and `COc1ccc(Nc2ncc(C(F)(F)F)c(NC3CC3)n2)cc1OC` cannot be ordered by IC50: less than 200 nM for the first, less than 200 nM for the second.

`CNC(=O)Cc1ccccc1Oc1nc(Nc2cc(OC)c(OC)c(OC)c2)ncc1Br` and `COc1cc(Nc2ncc(Br)c(Oc3ccccc3CNC(C)=O)n2)cc(OC)c1OC` cannot be ordered by IC50: greater than 2000 nM for the first, greater than 2000 nM for the second.

`COc1cc(Nc2ncc(Br)c(Oc3cccc4c3CCCC4)n2)cc(OC)c1OC` and `COc1cc(Nc2ncc(Br)c(Oc3cccc4c3N(C(C)=O)CCC4)n2)cc(OC)c1OC` cannot be ordered by IC50: greater than 2000 nM for the first, greater than 2000 nM for the second.

`O=C1CCc2cc(Nc3ncc(C(F)(F)F)c(Nc4ccccc4CO)n3)ccc2N1` and `O=C1CCc2cc(Nc3ncc(C(F)(F)F)c(Nc4ccc5c(c4)OCO5)n3)ccc2N1` cannot be ordered by IC50: less than 200 nM for the first, less than 200 nM for the second.

`CCN1CCOc2cc(Nc3ncc(C(F)(F)F)c(NC4CC4)n3)cnc21` and `CCN1CCOc2cc(Nc3nc(Nc4ccc5c(c4)CCC(=O)N5)ncc3Br)cnc21` cannot be ordered by IC50: less than 200 nM for the first, less than 200 nM for the second.

Going from `COc1cc(Nc2nc(Oc3cccc4c3N(C(C)=O)CCC4)ncc2Br)cc(O)c1OC` to `COc1cc(Nc2nc(Oc3cccc4c3CCCC4)ncc2Br)cc(O)c1OC`, the IC50 rises from less than 200 nM to greater than 2000 nM.

Compared with `O=C1CCc2cc(Nc3ncc(C(F)(F)F)c(NCCCNC(=O)C4CC4)n3)ccc2N1`, `CC(=O)NNc1nc(Nc2ccc3c(c2)CCC(=O)N3)ncc1C(F)(F)F` is higher in IC50: less than 200 nM for the first, greater than 2000 nM for the second. The first is the more potent here.

`CNC(=O)c1ccc(OC)cc1Oc1nc(Nc2cc(O)c(OC)c(OC)c2)ncc1Br` and `CNC(=O)c1ccc(OC)cc1Oc1ncc(Br)c(Nc2cc(OC)c(OC)c(OC)c2)n1` cannot be ordered by IC50: greater than 2000 nM for the first, greater than 2000 nM for the second.

`COc1cc(Nc2ncc(Br)c(Oc3ccccc3[S+](C)[O-])n2)cc(OC)c1OC` (configuration not stated) and `COc1cc(Nc2ncc(Br)c(Oc3ccccc3O)n2)cc(OC)c1OC` cannot be ordered by IC50: greater than 2000 nM for the first, greater than 2000 nM for the second.

Going from `COc1cc(Nc2ncc(Br)c(Oc3ccccc3NC(=O)C(C)(C)C)n2)cc(OC)c1OC` to `COc1cc(Nc2ncc(Br)c(Oc3ccccc3NC(=O)C(F)(F)F)n2)cc(OC)c1OC`, the IC50 falls from greater than 2000 nM to less than 200 nM. The second is the more potent here.

`CNC(=O)c1ccccc1Oc1nc(Nc2ccc3c(c2)CCC(=O)N3)ncc1Br` and `CC(=O)Nc1ccccc1Oc1nc(Nc2ccc3c(c2)OCO3)ncc1Br` cannot be ordered by IC50: greater than 2000 nM for the first, greater than 2000 nM for the second.

First: FC(F)(F)c1cnc(Nc2cccc(Oc3ccccc3)c2)nc1Nc1ccc2c(c1)OCO2
Second: NC(=O)c1cccc(Nc2ncc(C(F)(F)F)c(Nc3ccc4c(c3)OCO4)n2)c1
The IC50 of the first is higher: greater than 2000 nM for the first, less than 200 nM for the second. The second is the more potent here.

First: Oc1nc(Nc2cnc3[nH]ccc3c2)ncc1C(F)(F)F
Second: O=c1[nH][nH]c(=O)c2cc(Nc3ncc(C(F)(F)F)c(NC4CC4)n3)ccc12
The IC50 of the first is higher: greater than 2000 nM for the first, less than 200 nM for the second. The second is the more potent here.

`COc1cc(Nc2ncc(Cl)c(Nc3ccccc3CO)n2)cc(OC)c1OC` and `COc1cc(Nc2ncc(Br)c(Oc3ccccc3CN(C)C)n2)cc(OC)c1OC` cannot be ordered by IC50: greater than 2000 nM for the first, greater than 2000 nM for the second.

Going from `COc1cc(Nc2ncc(C(F)(F)F)c(Oc3ccccc3N)n2)cc(OC)c1OC` to `COc1cc(Nc2ncc(Br)c(Oc3ccccc3NS(C)(=O)=O)n2)cc(OC)c1OC`, the IC50 rises from less than 200 nM to greater than 2000 nM. The first is the more potent here.

`COc1cc(Nc2ncc(Br)c(Oc3cccc(O)c3[N+](=O)[O-])n2)cc(OC)c1OC` and `COc1cc(Nc2ncc(Br)c(Oc3cccc4cc[nH]c34)n2)cc(OC)c1OC` cannot be ordered by IC50: greater than 2000 nM for the first, greater than 2000 nM for the second.

`OCc1ccccc1Nc1nc(Nc2cc(F)c(F)c(F)c2)ncc1Br` and `CNC(=O)c1ccccc1COc1nc(Nc2cc(OC)c(OC)c(OC)c2)ncc1Br` cannot be ordered by IC50: greater than 2000 nM for the first, greater than 2000 nM for the second.

`Nc1ccccc1Oc1nc(Nc2ccc3c(c2)OCO3)ncc1Br` and `COc1ccc(Nc2ncc(C(F)(F)F)c(Nc3ccc4c(c3)OCO4)n2)cc1` cannot be ordered by IC50: less than 200 nM for the first, less than 200 nM for the second.

Going from `FC(F)(F)c1cnc(Nc2cccc(Cl)c2Cl)nc1Nc1ccc2c(c1)OCO2` to `FC(F)(F)c1cnc(Nc2ccc3c(c2)CCC3)nc1Nc1ccc2c(c1)OCO2`, the IC50 falls from greater than 2000 nM to less than 200 nM.

`COc1cc(Nc2nc(Oc3cccc4cc[nH]c34)ncc2Br)cc(O)c1OC` and `COc1cc(Nc2ncc(Br)c(Oc3cccc4cccnc34)n2)cc(OC)c1OC` cannot be ordered by IC50: greater than 2000 nM for the first, greater than 2000 nM for the second.

`COCC(C)(CN(C)C)Nc1nc(Nc2ccc3c(c2)CCC(=O)N3)ncc1C(F)(F)F` (configuration not stated) and `COc1cccc(Nc2nc(Nc3ccc(OC(F)(F)F)c(Cl)c3)ncc2C(F)(F)F)c1` cannot be ordered by IC50: greater than 2000 nM for the first, greater than 2000 nM for the second.

Going from `FC(F)(F)c1cnc(Nc2ccc(-n3cccc3)cc2)nc1Nc1ccc2c(c1)OCO2` to `COc1cc(Nc2ncc(Br)c(-n3nnc4ccccc43)n2)cc(OC)c1OC`, the IC50 rises from less than 200 nM to greater than 2000 nM. The first is the more potent here.

`COc1cc(Nc2ncc(Br)c(Oc3cccc4ccncc34)n2)cc(OC)c1OC` and `COc1cc(Nc2ncc(Br)c(Oc3cccc4[nH]nnc34)n2)cc(OC)c1OC` cannot be ordered by IC50: greater than 2000 nM for the first, greater than 2000 nM for the second.

`COc1cc(Nc2ncc(Br)c(Oc3ccccc3C3=NC(C)(C)CO3)n2)cc(OC)c1OC` gave an IC50 greater than 2000 nM.
